This is an account of results in PMC13229503, “Dissecting mechanisms of ligand binding and conformational changes in the glutamine-binding protein” (eLife, 2026).

Where two headings read alike, the source gives them in different places.

In experiment [1] the target is T1, GlnBP(111 C-192C) (Escherichia coli, UniProt P0AEQ3, G214C/V133C).
T1 construct: made in house; host or cells: E. coli BL21-pLysS
The experiment is described as follows: ITC of ligand binding to refolded, unlabeled GlnBP(111C-192C). The method, then: (§1) The ITC measurements were performed in a MicroCal PEAQ-ITC isothermal titration calorimeter (Malvern Instruments). The prediction ITC software ‘MicroCal PEAQ-ITC Control’ was employed for designing and conducting the experiments. Once the Kd value and the binding stoichiometry (N) were assigned as predefined values, the concentration of both the protein and the titrant (ligand) stock solutions could be calculated by the ‘design-experiment’ function on the software to get an optimal sigmoidal one-site binding curve. GlnBP concentration was assessed using the Nanophotometer (N60 Touch, Implen GmbH) with at least three reading repeats to get accurate determinations of concentration values. For all ITC measurements, the temperature was set at 25 °C with stirring speed at 750 rev/min. The GlnBPs solution (10 μM in PBS buffer pH 7.4, 300 μL) was manually loaded into the sample cell. The titrant (L-glutamine, 100 μM in PBS buffer, pH 7.4) was automatically loaded into the titration syringe and injected in the sample cell with a titration speed of 2 μL every 150 s and a total of 19 injections. As a control experiment, L-glutamine was titrated into the sample cell containing PBS buffer without GlnBPs. All the titration data were analyzed using the MicroCal PEAQ-ITC Analysis Software.

The target of experiment [2] is T2, GlnBP(59 C-130C) (Escherichia coli, UniProt P0AEQ3, T152C/T81C).
T2 construct: made in house; host or cells: E. coli BL21-pLysS
The experiment is described as follows: ITC of ligand binding to refolded, unlabeled GlnBP(59C-130C). The method, then:
as §1

Experiment [3] addresses T1, GlnBP(111 C-192C). The experiment is described as follows: Diffusion-based smFRET (µsALEX) ligand titration of doubly-labeled GlnBP(111C-192C). The class given is binding. To be noted: millimolar ligand, GlnBP(111C-192C) and GlnBP(59C-130C), AF555/AF647. How it is done: The refolded GlnBP(111 C-192C) and GlnBP(59 C-130C) variants were labeled with commercial maleimide derivatives of AF555/AF647 or ATTO 532/ATTO 643 ([Gebhardt et al., 2021]), and then purified by SEC. […] First, the His-tagged protein was incubated in 10 mM DTT in PBS buffer for 30 min to reduce all oxidized cysteine residues. Subsequently, the protein was diluted 10 times with PBS buffer and immobilized on a Nickel Sepharose 6 Fast Flow resin (GE Healthcare). The resin was washed extensively with milliQ water followed by PBS buffer pH 7.4. To remove the excess of DTT, the resin was washed with PBS buffer. […]
Single-molecule μsALEX experiments were carried out at room temperature on a custom-built confocal microscope. […] In general, the 532 and 640 nm diode lasers operated at 60 and 25 μW, respectively (measured at the back aperture of the objective), unless stated otherwise. Fluorescence light was collected by the same objective, focused onto a 50 μm pinhole and separated into two spectral channels (donor and acceptor fluorescence) by a dichroic beamsplitter (H643 LPXR, AHF, Germany). Fluorescence emission was collected by two avalanche photodiodes (SPCM-AQRH-64, Excelitas) after additional filtering (donor channel: BrightLine HC 582/75 and acceptor channel: Longpass 647 LP Edge Basic, both from Semrock, USA). […]

The test system of experiment [4] is GlnBP. The settings on record: cited from earlier work.
Experiment [5] deals with GlnBP. Also noted: method as in Berntsson et al., 2010. To be noted: numerical fits of stopped-flow relaxation curves, Gln:GlnBP 1:1 and 2:1; ref Berntsson et al., 2010; cited from earlier work.

T1 sequence (P0AEQ3 23-248 V133C/G214C): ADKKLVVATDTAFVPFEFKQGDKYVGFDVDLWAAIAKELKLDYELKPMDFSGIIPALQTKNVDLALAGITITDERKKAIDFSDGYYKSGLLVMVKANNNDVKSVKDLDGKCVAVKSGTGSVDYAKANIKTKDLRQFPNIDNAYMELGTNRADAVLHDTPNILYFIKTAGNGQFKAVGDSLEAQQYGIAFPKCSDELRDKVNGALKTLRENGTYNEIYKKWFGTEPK
T2 sequence (P0AEQ3 23-248 T81C/T152C): as the sequence (P0AEQ3 23-248 V133C/G214C) above, with T59C, C111V, T130C, C192G counted along it

For `N=C(N)NCCC[C@H](N)C(=O)O` [L-Arginine], the results for the Kd in experiment [1] and in experiment [2] were 421 ± 292 µM and 737 ± 133 µM, respectively. The “ligand-induced FRET shift (conformational change)” value in experiment [3] was “hardly any FRET shifts”. Also, the affinity result in experiment [4] (arginine, ref Chen et al., 2020) is “millimolar affinity”.

As to `NC(=O)CC[C@H](N)C(=O)O` [L-glutamine], the effective on-rate constant result in experiment [5] is reported as “about 10^8 M^–1s^–1”. The affinity entry in experiment [4] (L-glutamine, ref Pistolesi and Tjandra, 2012, Su et al., 2007) is “sub-micromolar affinity”.
